Assay results from paper PMC7782499, “Progerinin, an optimized progerin-lamin A binding inhibitor, ameliorates premature senescence phenotypes of Hutchinson-Gilford progeria syndrome” (Communications Biology, 2021).
Where “and” joins values, the source holds several entries; their conditions need not be identical. Identical values can stand only once.

Columns and labels:
[1] = tested on: H3K9me3; assay: H3K9me3 expression in HGPS cells; assay type: cell-based, human; settings: for H3K9me3 positive cells after treatment with chemicals, Ave / H3K9me3 positive cells after treatment with chemicals / H3K9me3 intensity: AG03198; for H3K9me3 positive cells after treatment with chemicals, Ave: average; for H3K9me3 positive cells after treatment with chemicals: single replicates
Protocol: Fig. 1 SLC-D011 ameliorates premature aging features of HGPS. A. HEK293 cells were transiently transfected with expression vector encoding wild-type lamin A (WT-LA), lamin A-C661A (LA-C661A), progerin, or progerin-C611A. LA-C661A or progerin-C611A with point mutation in CaaX motif was predicted to be lack of farnesylation, […] that of authentic WT-LA or progerin. GFP-conjugated empty expression vector was used as a negative control. Cells were visualized at 24 h after transfection. B Transient transfection of HEK293 cells with expression vector encoding progerin or […] leads to reduced expression of H3K9me3 (n = 3 independent experiments; two-tailed Student’s t test). C. JH4 derivatives (JH010 and SLC-D011(D011)) inhibit lamin A and progerin interaction. For binding inhibition assay, bead-conjugated lamin A (GST-LA) was incubated with HEK293 cells, transiently transfected with GFP-progerin (PG), and treated with indicated chemicals. Actin was used as a loading control. PPT, co-precipitated materials with recombinant proteins; Sup supernatant. 5 μM of each chemical was used for binding assay. […] H3K9me3 reduction is a well-known marker for premature aged cells. Thus, H3K9me3 expression was evaluated by immunostaining. […] E SLC-D011 obviously suppresses progerin expression. For progerin expression analysis, each chemical was used to treat HGPS cells (AG03198, Coriell Cell Repositories) for 7 days. […] F SLC-D011 reduces the expression of progerin in other HGPS cells (AG11513 and AG11498, Coriell Cell Repositories). Treatment with SLC-D011 (2 μM) for 7 days reduced the expression of progerin and p16/INK4A but induced the expression of H3K9me3. […] G JH4, JH010, and SLC-D011 promote cell proliferation. Cell viability was determined by MTT assay after incubation with chemicals for 7 days (n = 3 independent experiments; two-tailed Student’s t test). H JH4, JH010, and SLC-D011 show similar activity for ameliorating nuclear deformation. After incubation with chemicals for 7 days, cells were stained with progerin and H3K9me3 antibodies (n = 3 independent experiment; two-tailed Student’s t test), **p < 0.001. Data are reported as mean ± SD. “Con” means Dimethyl sulfoxide (DMSO)-treated control. The data are normalized to DMSO-treated cells.
Cells were cultured on coverslips, washed with PBS, fixed with 4% paraformaldehyde (PFA) for 30 min at RT, and then permeabilized with 0.2% Triton X-100 at RT for 5 min. After treatment with blocking solution (anti-Human antibody diluted 1:400 in PBS) for 1 h, cells were incubated with anti-lamin A/C (1:400), anti-progerin (1:100), Ki67 (1:200), and anti-H3K9me3 (1:200) in blocking buffer overnight at 4 °C. Finally, cells were incubated with fluorescein isothiocyanate and rhodamine-conjugated secondary antibodies at 4 °C for 7 h. Nuclei were stained with DAPI (4, 6-diamidino-2-phenylindole) at RT for 10 min. After cells were washed three times with PBS, coverslips were mounted with mounting solution (H-5501; Vector Laboratories, Burlingame, CA, USA). Immunofluorescence signal was detected with a fluorescence microscopy (Zeiss and Logos).
For nuclear deformation cell counting, immunofluorescence staining was performed with lamin A or progerin antibodies. After staining, abnormal nuclear membrane was counted in randomly selected fields and expressed as percentages or actual numbers of total cells counted. Abnormalities of nuclear membrane were determined based on the following: (1) lamin A/C or progerin lining was extruded or engulfed, (2) having at least one bleb, and (3) irregular contour. Counting of cells with nuclear deformation was performed by three independent observers who were blinded to chemical treatment group. To analyze histone H3K9me3 intensity or expression, images were quantified using “color histogram” function of Image J software (National Institute of Health, NIH). Fluorescence intensities were subtracted by background signals.

[2] = Plasma stability, rat; assay type: in vitro ADME
Protocol: For PK analysis, 5 mg/kg of JH4 in 10% DMSO, 5% […] solution were intravenously injected and 10 mg/kg of JH4 in 10% NMP and 90% PEG400 solution were orally delivered. At pre-set time-points, blood concentration of JH4 was determined by LC-MS/MS analysis[22],[23]. Other chemicals were also tested using similar protocol. In vitro ADME studies (plasma protein binding, CYP inhibition, microsomal stability, plasma stability, and hERG inhibition) were performed by New Drug Development Center (Daegu, Korea) using standard protocols[24],[25].

For `CC1(C)Oc2cc3oc(=O)ccc3cc2CC1OC(=O)C=Cc1cccnc1` (centres unmarked) [JH4], the “H3K9me3 positive cells after treatment with chemicals, Ave” value (shortened to “H3K9me3 positive cells … Ave”) ([1]; 2μM) was 14.5, the “H3K9me3 positive cells after treatment with chemicals” value ([1]; 2μM) was 13 and 17 and 15 (2×) and 11 and 16 and the “H3K9me3 positive cells … Ave” value ([1]; 5μM) was 21.6667. The “H3K9me3 positive cells after treatment with chemicals” value ([1]; 5μM) was 27 and 16 and 20 and 22 (2×) and 23, the “H3K9me3 positive cells … Ave” value ([1]; 10μM) was 27 and the “H3K9me3 positive cells after treatment with chemicals” value ([1]; 10μM) was 30 and 29 and 24 and 25 and 27 (2×).

For `CC1(C)Oc2cc3oc(=O)ccc3cc2C[C@@H]1OC/C=C/c1ccccc1` [SLC-D011], the remaining at 0.5 h ([2]; 30min) was 83.6%, the remaining at 2 h ([2]; 120min) was 75.1% and the H3K9me3 intensity [1] was 0.227 AU and 0.219 AU and 0.255 AU and 0.254 AU. The “H3K9me3 positive cells … Ave” value ([1]; 2μM) was 19.5, the “H3K9me3 positive cells after treatment with chemicals” value ([1]; 2μM) was 15 and 23 and 20 and 19 and 22 and 18 and the “H3K9me3 positive cells … Ave” value ([1]; 5μM) was 25.1667. For the same compound, the “H3K9me3 positive cells after treatment with chemicals” value ([1]; 5μM) was 20 and 24 and 27 and 28 and 29 and 23, the “H3K9me3 positive cells … Ave” value ([1]; 10μM) was 29 and the “H3K9me3 positive cells after treatment with chemicals” value ([1]; 10μM) was 24 and 33 and 32 and 30 and 29 and 26. For the same compound, the H3K9me3 intensity ([1]; mean) was 0.2387 AU and the “Effect on H3K9me3 expression” value ([1]; HGPS cells) was “induce H3K9me3 expression”.
